The record followed here is article PMC8999917, “Structure–Activity Relationship of Synthetic Ginkgolic Acid Analogs for Treating Type 2 Diabetes by PTPN9 Inhibition” (International Journal of Molecular Sciences, 2022).

Holding throughout (assay type): cell-based, mouse
The subject of one experiment is Akt phosphorylation. Put plainly: Western blot of Akt phosphorylation in C2C12 myotubes. The text has this:
To further investigate the mechanism of action of 1e, we evaluated its effects on AMPK and AKT phosphorylation in C2C12 myotubes. […] In line with the results obtained in 3T3-L1 cells, in the absence of insulin, 1e had no effects on basal p-Akt expression levels (Figure 6A). Since insulin plays an important role in regulating glucose metabolism through the redistribution of GLUT4 from intracellular vesicles to the cell surface, it is important to describe the interaction between 1e and insulin in the Akt pathway. […] Next, we evaluated the protective effects of 1e against PA-induced insulin resistance in C2C12 myotubes. To generate an insulin resistance model, C2C12 myotubes were treated with 250 µM PA in a serum-free medium for 16 h. Akt phosphorylation levels in PA-treated C2C12 cells decreased by 50% compared to levels in normal C2C12 cells (Figure 6C). Furthermore, in the presence of insulin and GA, Akt phosphorylation levels decreased only by 30% compared to levels in normal cells. […] The expression levels of glucose uptake-related proteins were determined via Western blotting, as previously described. […] Secondary antibodies were added to the membranes at a concentration of 1:2000 for 1 h at room temperature, and immunoreactive bands were detected via ECL (GE Healthcare Korea Co., Ltd., Incheon, Korea). […]
Background: In western blotting, separated proteins are transferred to a membrane and probed.

For a further experiment, the system named is C2C12 myotubes. Put plainly: 2-NBDG glucose uptake assay in C2C12 myotubes. As to conditions: 10 µM, plate reader fluorescence. How it is done: (§1) PTPN9 inhibitors have been reported to increase glucose uptake. To clarify the antidiabetic effects of GA analogs, a 2-NBDG (a fluorescent glucose probe) uptake assay was performed using differentiated 3T3-L1 adipocytes and C2C12 myotubes. After 16 h of starvation, differentiated 3T3-L1 adipocytes were incubated with compounds 1e and 1f for another 1 h. The cells were subsequently incubated with 2-NBDG for 30 min and washed with PBS before quantifying the fluorescence of 2-NBDG taken up by the cells. The 2-NBDG uptake-increasing effects of GA and its analogs in 3T3-L1 cells were monitored via confocal microscopy. The blank group was set in the absence of 2-NBDG but was treated with DMSO to determine the basal fluorescence levels in 3T3-L1 adipocytes (Figure 4A, Basal); in the negative control group, 3T3-L1 adipocytes were treated with 2-NBDG and DMSO for the evaluation of basal glucose uptake levels (Figure 4A, DMSO). […] Furthermore, to quantify 2-NBDG uptake, fluorescence intensity (Ex/Em = 485/535 nm) was measured using a plate reader. […] After incubation, the cells were washed with pre-cold PBS, and the fluorescence intensity was measured using a fluorescence microplate reader (Victor^TM X4, PerkinElmer, Waltham, MA, USA) (Ex/Em = 485/535 nm). […]

The subject of another experiment is 3T3-L1 adipocytes. Kind of experiment: 2-NBDG glucose uptake assay in differentiated 3T3-L1 adipocytes. As to conditions: 10 µM, plate reader fluorescence. How it is done: as §1

On to `CCCCCCCCCCCCCOc1cccc(O)c1C(=O)O` [Compound 1e], for which the “Akt phosphorylation on co-treatment with insulin” value in the experiment with Akt phosphorylation (100 nM insulin) is “synergistic Akt phosphorylation-improving effects with insulin”. Besides, the “basal p-Akt expression levels” value with Akt phosphorylation (absence of insulin) is listed as “no effects”. For the same compound, the “2-NBDG uptake increase compared to the DMSO control” value is reported as roughly 1.4 fold in the experiment with C2C12 myotubes and “approximately 2.0 fold” in the experiment with 3T3-L1 adipocytes.
